Test results from the supplement of paper PMC11061612.

Assays:
Test in all cases: combination Emax (second highest fraction inhibited in the dose matrix, 72 h); higher = more inhibition; extreme values may be limits of the assay
[1] = tested on: OCI-AML2 (Acute Myeloid Leukemia)
Procedure, shortened: (§1)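 After 24 hours at 37°C and 5% CO2 in 1536-well plates, cells in DMEM/F12 or RPMI plus 10% FBS received two-drug dose matrices for 72 hours. Viability came from CellTiter-Glo 2.0 luminescence and was scaled as inhibition, anchored at 0 by vehicle wells and at 1 by blank wells. Combination Emax is taken as the second-highest inhibition in the matrix, and Bliss excess as the observed combination effect less EA + EB − EA·EB, with EA and EB the single-agent effects.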

[2] = tested on: KARPAS-620 (Plasma Cell Myeloma)
Procedure, shortened: as §1

[3] = tested on: NALM-6 (B-Lymphoblastic Leukemia)
Procedure, shortened: as §1

[4] = tested on: KARPAS-1106P (B-Cell Non-Hodgkin's Lymphoma)
Procedure, shortened: as §1

NCI-H2595 (Mesothelioma) = tested on: NCI-H2595 (Mesothelioma)
Procedure, shortened: as §1

[5] = tested on: LS-513 (Colorectal Carcinoma)
Procedure, shortened: as §1

[6] = tested on: DOV13 (Ovarian Carcinoma)
Procedure, shortened: as §1

[7] = tested on: SW1990 (Pancreatic Carcinoma)
Procedure, shortened: as §1

[8] = tested on: IHH-4 (Thyroid Gland Carcinoma)
Procedure, shortened: as §1

[9] = tested on: DB (B-Cell Non-Hodgkin's Lymphoma)
Procedure, shortened: as §1

[10] = tested on: MFH-ino (Other Solid Carcinomas)
Procedure, shortened: as §1

[11] = tested on: NCI-H1299 (Non-Small Cell Lung Carcinoma)
Procedure, shortened: as §1

[12] = tested on: U-266 (Plasma Cell Myeloma)
Procedure, shortened: as §1

[13] = tested on: SW1088 (Low Grade Glioma)
Procedure, shortened: as §1

[14] = tested on: NCI-H211 (Small Cell Lung Carcinoma)
Procedure, shortened: as §1

ES7 (Ewing's Sarcoma) = tested on: ES7 (Ewing's Sarcoma)
Procedure, shortened: as §1

SK-N-FI (Neuroblastoma) = tested on: SK-N-FI (Neuroblastoma)
Procedure, shortened: as §1

[15] = tested on: MDA-MB-157 (Breast Carcinoma)
Procedure, shortened: as §1

SN12C (Kidney Carcinoma) = tested on: SN12C (Kidney Carcinoma)
Procedure, shortened: as §1

[16] = tested on: SW1783 (Low Grade Glioma)
Procedure, shortened: as §1

| SMILES | combination Emax [1] | combination Emax [2] | combination Emax [3] | combination Emax [4] | combination Emax (NCI-H2595 (Mesothelioma)) | combination Emax [5] | combination Emax [6] | combination Emax [7] | combination Emax [8] | combination Emax [9] | combination Emax [10] | combination Emax [11] | combination Emax [12] | combination Emax [13] | combination Emax [14] | combination Emax (ES7 (Ewing's Sarcoma)) | combination Emax (SK-N-FI (Neuroblastoma)) | combination Emax [15] | combination Emax (SN12C (Kidney Carcinoma)) | combination Emax [16] |
| --- | --- | --- | --- | --- | --- | --- | --- | --- | --- | --- | --- | --- | --- | --- | --- | --- | --- | --- | --- | --- |
| C=CCn1c(=O)c2cnc(Nc3ccc(N4CCN(C)CC4)cc3)nc2n1-c1cccc(C(C)(C)O)n1 [AZD1775] + Nc1ccn([C@@H]2O[C@H](CO)[C@@H](O)C2(F)F)c(=O)n1 [Gemcitabine] (first compound max 1 µM, partner max 0.3 µM) | 1 | 0.548 | 0.958 | 0.94 | 0.344 | 0.839 | 0.952 | 0.384 | 1 | 0.952 | 0.68 | 0.818 | 0.765 | 0.581 | 0.998 | 0.983 | 0.616 | 0.917 | 0.576 | 0.684 |
| C[C@@H](Oc1cc(-c2cnn(C3CCNCC3)c2)cnc1N)c1c(Cl)ccc(F)c1Cl [Crizotinib] + CC1=C(C(=CC=C1)Cl)NC(=O)C2=CN=C(S2)NC3=CC(=NC(=N3)C)N4CCN(CC4)CCO [Dasatinib] (first compound max 10 µM, 7x7, partner max 2 µM) | 0.826 | 0.835 | 0.942 | 0.954 | 0.628 | 0.978 | 1 | 0.255 | 0.875 | 0.711 | 0.821 | 0.734 | 0.499 | 0.829 | 0.964 | 0.883 | 0.422 | 0.303 | 0.231 | 0.784 |
| O=C(c1cc(Cc2n[nH]c(=O)c3ccccc23)ccc1F)N1CCN(C(=O)C2CC2)CC1 [Olaparib] + CC1(C)CCC(CN2CCN(c3ccc(C(=O)NS(=O)(=O)c4ccc(NCC5CCOCC5)c([N+](=O)[O-])c4)c(Oc4cnc5[nH]ccc5c4)c3)CC2)=C(c2ccc(Cl)cc2)C1 [Venetoclax] (first compound max 10 µM, 7x7, partner max 1 µM) | 0.99 | 0.872 | 0.965 | 0.402 | 0.109 | 0.18 | 0.158 | 0.179 | 0.169 | 0.849 | 0.118 | 0.0838 | 0.248 | 0.136 | 0.99 | 0.95 | 0.0529 | 0.165 | 0.206 | 0.0873 |
| Cc1c2c(nn1C)CSCc1cc(n(C)n1)CSc1cc(c3ccccc3c1)OCCCc1c(C(=O)O)n(C)c3c-2c(Cl)ccc13 [AZD5991] + CS(=O)(=O)CCNCc1ccc(-c2ccc3ncnc(Nc4ccc(OCc5cccc(F)c5)c(Cl)c4)c3c2)o1 [Lapatinib] (first compound max 1 µM, 7x7, partner max 10 µM) | 0.978 | 1 | 0.761 | 0.893 | 0.361 | 0.822 | 0.185 | 0.295 | 0.278 | 1 | 0.234 | 0.301 | 0.845 | 0.36 | 0.979 | 0.737 | 0.562 | 0.883 | 0.249 | 0.165 |
| N#Cc1cnc(Nc2cc(NC[C@H]3CNCCO3)c(C(F)(F)F)cn2)cn1 [SRA737] + C=CCn1c(=O)c2cnc(Nc3ccc(N4CCN(C)CC4)cc3)nc2n1-c1cccc(C(C)(C)O)n1 [AZD1775] (first compound max 10 µM, partner max 1 µM) | 1 | 0.779 | 0.969 | 0.913 | 0.236 | 0.84 | – | 0.507 | 0.825 | 0.87 | 0.441 | 0.674 | 0.599 | 0.77 | 0.971 | 0.829 | 0.722 | 0.955 | 0.212 | 0.467 |
| Cc1c2c(nn1C)CSCc1cc(n(C)n1)CSc1cc(c3ccccc3c1)OCCCc1c(C(=O)O)n(C)c3c-2c(Cl)ccc13 [AZD5991] + CC(=O)O[C@H]1C(=O)[C@@]2(C)[C@H]([C@H](OC(=O)c3ccccc3)[C@]3(O)C[C@H](OC(=O)[C@H](O)[C@@H](NC(=O)c4ccccc4)c4ccccc4)C(C)=C1C3(C)C)[C@]1(OC(C)=O)CO[C@@H]1C[C@@H]2O [Paclitaxel] (first compound max 1 µM, 7x7, partner max 3 µM) | 1 | 1 | 0.969 | 0.951 | 0.703 | 0.893 | 0.796 | 0.496 | 0.932 | 1 | 0.416 | 0.734 | 0.993 | 0.776 | 1 | 0.958 | 0.621 | 0.977 | 0.44 | 0.706 |
